Tested on: cartilage defect model mice (knee joint articular cartilage defect)
Assay: Efficacy of HMGB1 fragment peptide on articular cartilage defect in cartilage defect model mouse
Type: in vivo, C57BL/6J mice
Method: C57BL/6J mice (6-7 weeks old, male, wild type) were purchased from CLEA Japan, Inc., and then acclimated to animal facilities until they were 8 weeks old (weighing approximately 25 g at 8 weeks old). While the mice were under 1.5-2.0% (v/v) isoflurane inhalation anesthesia, shaving was performed on the lower extremity of the side to create a cartilage defect, and a longitudinal skin incision of approximately 1 cm was applied with scissors to the middle of the knee joint. An articular dissection of approximately 1 cm was performed under the microscope with a sharp blade (#11) in the parapatellar medial approach to dislocate the patella laterally. The femoral pulley was confirmed, and a 0.5×0.5×0.5 mm cartilage defect was created at the center of the pulley using a 0.5 mm diameter hand-turned drill (manufactured by MEISINGER USA, L.L.C.). Inside of the joint was washed with saline, then the articular capsule was continuously sutured with 8-0 vicryl to prevent patellar dislocation, and the skin was sutured with 5-0 nylon thread.
Cartilage defect model mice created as described above were divided into an HMGB1 peptide (1-44) administration group (n=16) and a control group (n=16). To the HMGB1 peptide (1-44) administration group, a solution of HMGB1 peptide (1-44) adjusted to a concentration of 1 μg/μL with saline as solvent was administered from the tail vein in an amount of 100 μL/mouse (4 mg/kg as the dose of peptide) immediately after the cartilage defect was created, and thereafter, the same dose was administered twice a week until 4 weeks after the cartilage defect was created (hereinafter also referred to simply as “post-operative”). To the control group, saline was administered from the tail vein in an amount of 100 μL to each mouse on the same schedule as in the HMGB1 peptide (1-44) administration group.
In both the HMGB1 peptide (1-44) administration group and the control group, four mice were sacrificed at each time point of 2, 4, 8 and 12 weeks post-operative, and the cartilage defect creation sites of knee joints were removed for microscopic observation and tissue staining. For microscopic observation, the status of cartilage tissue was evaluated by scoring the gross appearance according to the criteria shown in Table 1 below using the Wayne scoring system. In addition, sections of cartilage tissue were created for histological evaluation and subjected to safranin O staining, and the status of cartilage tissue was evaluated by calculating the Wakitani score from the tissue images according to the criteria shown in Table 2 below.

## HMGB1 peptide (1-44): Peptide consisting of amino acid residues 1-44 (SEQ ID NO: 1) of human-derived HMGB1 protein, chemically synthesized by a solid-phase method (MGKGDPKKPRGKMSSYAFFVQTCREEHKKKHPDASVNFSEFSKK)
4 mg/kg tail vein, twice a week until 4 weeks post-operative, observed at 2, 4, 8 and 12 weeks post-operative, vs control group (saline)
  Microscopic observation (gross appearance) of cartilage defect sites of knee joints: recovered to a state closer to normal than those of the control group
4 mg/kg tail vein, twice a week until 4 weeks, 2, 4, 8 and 12 weeks post-operative, FIGS. 3 and 5
  Safranin O staining of cartilage tissue sections (regeneration of defective cartilage tissue): defective cartilage tissue was fully regenerated
4 mg/kg tail vein, twice a week until 4 weeks, 2, 4, 8 and 12 weeks post-operative, vs control group, FIG. 2
  Wayne score (gross appearance): higher than the control group
4 mg/kg tail vein, twice a week until 4 weeks, 2, 4, 8 and 12 weeks post-operative, vs control group, FIGS. 4 and 6
  Wakitani score (histological evaluation): significantly lower compared to that of the control group
12 weeks post-operative, compared with cartilage of normal mice (FIG. 8, left)
  Safranin O staining response of knee joint cartilage tissues compared with normal mice: strong positive response similar to cartilage tissues of knee joints of normal mice

From patent US20210386823A1, “THERAPEUTIC AGENT FOR CARTILAGE DISORDER” (OSAKA UNIVERSITY, priority 2018, published 2021)
